{"source": "paper PMC4184702", "about": "(Pharmacology Research & Perspectives, 2014)", "key": {"PBR": {"molecular_target": "T1, PBR (Rattus norvegicus, UniProt P16257)", "T1 construct": "purchased NIMH Psychoactive Drug Screening Program (PDSP)", "T1 sequence (P16257 whole entry)": "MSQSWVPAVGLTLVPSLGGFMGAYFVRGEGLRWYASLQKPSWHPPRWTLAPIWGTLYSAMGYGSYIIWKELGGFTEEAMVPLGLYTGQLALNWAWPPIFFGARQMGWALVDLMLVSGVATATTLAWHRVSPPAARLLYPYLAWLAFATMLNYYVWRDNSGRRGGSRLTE", "assay": "PDSP primary binding, PBR", "conditions": "n = 4, read-out: Inhibition (primary binding competition efficacy), PBR", "procedure": "(§1) For experimental details, please refer to the Psychoactive Drug Screening Program (PDSP) web site http://pdsp.med.unc.edu/.\n(§2) ^a The default concentration for primary binding experiments is 10 µM (n = 4). ^b Negative inhibition represents a stimulation of binding. ^c BZPR: Benzodiazepine Receptors (rat brain site). ^d DOR: Delta Opioid Receptor; KOR: Kappa Opioid Receptor; MOR: Mu Opioid Receptor. ^e DAT: Dopamine Transporter; NET: Norepinephrine Transporter; SERT: Serotonin Transporter. ^f NMDA: N-methyl-D-aspartate receptor."}, "CYP2D6": {"molecular_target": "T2, CYP2D6 (Homo sapiens, UniProt P10635)", "T2 construct": "from tissue; host or cells: human liver microsomes (HLM)", "T2 sequence (P10635 whole entry)": "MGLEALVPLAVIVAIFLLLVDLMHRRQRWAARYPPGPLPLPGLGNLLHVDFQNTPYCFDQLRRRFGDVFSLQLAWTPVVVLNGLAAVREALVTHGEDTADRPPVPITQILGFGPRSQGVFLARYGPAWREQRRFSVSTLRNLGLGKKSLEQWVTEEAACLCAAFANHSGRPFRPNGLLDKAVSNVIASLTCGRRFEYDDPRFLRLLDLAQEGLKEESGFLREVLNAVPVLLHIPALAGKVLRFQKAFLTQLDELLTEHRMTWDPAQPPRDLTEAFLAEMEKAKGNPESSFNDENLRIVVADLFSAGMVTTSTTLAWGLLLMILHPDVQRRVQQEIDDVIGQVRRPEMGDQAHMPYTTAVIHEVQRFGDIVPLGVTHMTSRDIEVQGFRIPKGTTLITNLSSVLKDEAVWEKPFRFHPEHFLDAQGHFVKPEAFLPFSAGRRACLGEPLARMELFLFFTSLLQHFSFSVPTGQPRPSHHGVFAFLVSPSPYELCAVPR", "assay": "CYP2D6 inhibition, HLM, dextromethorphan substrate", "type": "in vitro ADME", "conditions": "1.0E-05 M", "from_the_text": "(§3) Supplement prp20002-e00026-sd1.doc, table 3: Table 3."}, "CYP3A": {"tested_on": "CYP3A", "assay": "CYP3A inhibition, HLM, midazolam substrate", "type": "in vitro ADME, human", "conditions": "1.0E-05 M", "from_the_text": "as §3"}, "[1]": {"assay": "Plasma and brain levels after NSF (UHPLC-MS-MS)", "type": "in vivo, mouse", "procedure": "The chamber floor is covered with bedding (∼0.5″). […] Samples are stored at −80°C until analysis.\nCompound LF-3-99 (10 ng/mL, See Fig. S1 for structure) was used as an internal standard."}, "α2C adrenergic receptor": {"molecular_target": "T3, α2C adrenergic receptor (Homo sapiens, UniProt P18825)", "T3 construct": "purchased NIMH Psychoactive Drug Screening Program (PDSP)", "T3 sequence (P18825 whole entry)": "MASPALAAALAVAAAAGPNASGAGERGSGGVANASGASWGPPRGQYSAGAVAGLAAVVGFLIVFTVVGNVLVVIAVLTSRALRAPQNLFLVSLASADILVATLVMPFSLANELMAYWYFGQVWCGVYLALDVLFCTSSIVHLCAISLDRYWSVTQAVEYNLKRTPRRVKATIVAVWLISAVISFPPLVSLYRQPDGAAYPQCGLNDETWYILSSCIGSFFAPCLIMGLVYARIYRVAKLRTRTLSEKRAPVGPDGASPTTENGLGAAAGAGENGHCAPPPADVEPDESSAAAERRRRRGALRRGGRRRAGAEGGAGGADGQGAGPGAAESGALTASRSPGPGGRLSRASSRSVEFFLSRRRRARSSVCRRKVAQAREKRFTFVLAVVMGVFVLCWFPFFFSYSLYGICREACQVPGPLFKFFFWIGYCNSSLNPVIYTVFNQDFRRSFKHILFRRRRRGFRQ", "assay": "PDSP primary binding, α2C", "conditions": "n = 4, read-out: Inhibition (primary binding competition efficacy), α2C", "procedure": "as §1, §2"}, "α7 nAChR": {"molecular_target": "α7 nAChR", "conditions": "ref Yu et al. [2012], cited from earlier work"}, "[2]": {"assay": "Bacterial cytotoxicity, strain TA98", "type": "cell-based", "conditions": "Salmonella typhimurium, bacterial tester strain TA98 without S9, read-out: Cytotoxicity (% of Control Values)", "from_the_text": "Supplement prp20002-e00026-sd1.doc, table 4: Table 4."}, "Oxytocin": {"molecular_target": "T4, Oxytocin (Homo sapiens, UniProt P30559)", "T4 construct": "purchased NIMH Psychoactive Drug Screening Program (PDSP)", "T4 sequence (P30559 whole entry)": "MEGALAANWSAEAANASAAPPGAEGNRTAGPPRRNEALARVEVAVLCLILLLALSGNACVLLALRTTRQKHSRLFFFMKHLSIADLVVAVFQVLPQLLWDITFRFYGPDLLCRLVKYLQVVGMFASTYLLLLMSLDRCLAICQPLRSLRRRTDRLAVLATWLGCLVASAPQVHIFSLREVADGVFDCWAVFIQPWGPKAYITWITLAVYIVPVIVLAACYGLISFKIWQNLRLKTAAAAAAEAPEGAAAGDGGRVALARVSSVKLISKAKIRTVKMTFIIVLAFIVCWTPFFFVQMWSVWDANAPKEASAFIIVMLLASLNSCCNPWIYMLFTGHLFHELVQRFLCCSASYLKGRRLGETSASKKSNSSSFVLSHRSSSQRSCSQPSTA", "assay": "PDSP primary binding, Oxytocin", "conditions": "n = 4, read-out: Inhibition (primary binding competition efficacy), Oxytocin", "procedure": "as §1, §2"}, "strain TA100": {"tested_on": "strain TA100", "assay": "Ames test, strain TA100", "type": "cell-based"}, "V1A": {"molecular_target": "T5, V1A (Homo sapiens, UniProt P37288)", "T5 construct": "purchased NIMH Psychoactive Drug Screening Program (PDSP)", "T5 sequence (P37288 whole entry)": "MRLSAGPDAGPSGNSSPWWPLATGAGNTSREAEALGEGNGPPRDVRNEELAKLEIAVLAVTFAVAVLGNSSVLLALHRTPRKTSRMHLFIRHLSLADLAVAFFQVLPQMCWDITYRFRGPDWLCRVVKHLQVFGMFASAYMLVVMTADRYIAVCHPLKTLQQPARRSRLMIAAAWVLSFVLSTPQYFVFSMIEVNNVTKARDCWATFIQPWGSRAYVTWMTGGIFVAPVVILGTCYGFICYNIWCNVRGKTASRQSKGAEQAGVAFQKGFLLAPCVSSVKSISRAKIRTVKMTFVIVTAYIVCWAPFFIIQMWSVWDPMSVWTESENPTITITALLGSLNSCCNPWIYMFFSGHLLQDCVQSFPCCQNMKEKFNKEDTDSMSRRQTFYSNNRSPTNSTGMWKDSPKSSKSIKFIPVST", "assay": "PDSP primary binding, V1A", "conditions": "n = 4, read-out: Inhibition (primary binding competition efficacy), V1A", "procedure": "as §1, §2"}, "H1 histamine receptor": {"molecular_target": "T6, H1 histamine receptor (Homo sapiens, UniProt P35367)", "T6 construct": "purchased NIMH Psychoactive Drug Screening Program (PDSP)", "T6 sequence (P35367 whole entry)": "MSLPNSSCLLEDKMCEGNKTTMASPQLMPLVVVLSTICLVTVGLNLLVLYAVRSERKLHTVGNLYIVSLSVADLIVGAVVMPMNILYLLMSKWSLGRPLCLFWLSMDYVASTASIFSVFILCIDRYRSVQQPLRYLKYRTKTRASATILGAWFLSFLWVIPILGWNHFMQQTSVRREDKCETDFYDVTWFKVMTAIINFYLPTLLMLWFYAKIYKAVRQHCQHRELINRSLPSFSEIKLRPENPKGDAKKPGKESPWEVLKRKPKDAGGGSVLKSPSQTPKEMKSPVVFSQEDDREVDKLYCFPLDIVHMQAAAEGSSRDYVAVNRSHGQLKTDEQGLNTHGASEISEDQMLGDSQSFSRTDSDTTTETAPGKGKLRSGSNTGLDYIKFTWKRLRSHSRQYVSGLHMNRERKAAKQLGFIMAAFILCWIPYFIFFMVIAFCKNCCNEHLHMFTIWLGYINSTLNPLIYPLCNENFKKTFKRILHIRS", "assay": "PDSP primary binding, H1", "conditions": "n = 4, read-out: Inhibition (primary binding competition efficacy), H1", "procedure": "as §1, §2"}, "[3]": {"conditions": "5 mg/kg p.o., day 29, about 50-60 min after pretreatment"}}, "data": [{"molecule": "OCCc1cc(-c2cncc(OC[C@@H]3CCN3)c2)on1", "note": "[LF-3-88, 2-[5-[5-(2(S)-azetidinylmethoxyl)-3-pyridyl]-3-isoxazolyl]ethanol]", "values": [{"measurement": "inhibition at 10 µM", "setting": "PBR", "value": -1.5, "unit": "%"}, {"measurement": "CYP2D6 Inhibition", "setting": "CYP2D6", "value": -0.4, "unit": "%"}, {"measurement": "CYP3A Inhibition", "setting": "CYP3A", "value": 1, "unit": "%"}, {"measurement": "Plasma level", "setting": "[1]; [3]", "value": "430 ± 172", "unit": "ng/mL"}, {"measurement": "brain level", "setting": "[1]; [3]", "value": "14 ± 4", "unit": "ng/g"}, {"measurement": "Plasma level", "setting": "[1]; 10 mg/kg p.o., day 29", "value": "942 ± 400", "unit": "ng/mL"}, {"measurement": "brain level", "setting": "[1]; 10 mg/kg p.o., day 29", "value": "31 ± 11", "unit": "ng/g"}, {"measurement": "inhibition at 10 µM", "setting": "α2C adrenergic receptor", "value": 17.2, "unit": "%"}, {"measurement": "Ki α7", "setting": "α7 nAChR; class symbol", "value": "NA ^4 (NA: not active, defined as < 50% binding in the primary assay at 10 μmol/L)"}, {"measurement": "Ki", "setting": "α7 nAChR; read-out: Ki α7-nAChRs", "value": "> 10", "unit": "µM"}, {"measurement": "viability at 0.0001 M", "setting": "[2]; strain TA98 – S9, 1.0E-04 M", "value": 108, "unit": "%"}, {"measurement": "viability at 10 µM", "setting": "[2]; strain TA98 – S9, 1.0E-05 M", "value": 92, "unit": "%"}, {"measurement": "viability at 1.25 µM", "setting": "[2]; strain TA98 – S9, 1.25E-06 M", "value": 95, "unit": "%"}, {"measurement": "viability at 25 µM", "setting": "[2]; strain TA98 – S9, 2.5E-05 M", "value": 94, "unit": "%"}, {"measurement": "viability at 2.5 µM", "setting": "[2]; strain TA98 – S9, 2.5E-06 M", "value": 98, "unit": "%"}, {"measurement": "viability at 50 µM", "setting": "[2]; strain TA98 – S9, 5.0E-05 M", "value": 102, "unit": "%"}, {"measurement": "viability at 5 µM", "setting": "[2]; strain TA98 – S9, 5.0E-06 M", "value": 96, "unit": "%"}, {"measurement": "viability at 625 nM", "setting": "[2]; strain TA98 – S9, 6.25E-07 M", "value": 97, "unit": "%"}, {"measurement": "inhibition at 10 µM", "setting": "Oxytocin", "value": 6.4, "unit": "%"}, {"measurement": "Ames test Result", "setting": "strain TA100; strain TA100 + S9, 1.0E-04 M", "value": "Negative"}, {"measurement": "Ames test Result", "setting": "strain TA100; strain TA100 + S9, 1.0E-05 M", "value": "Negative"}, {"measurement": "Ames test Result", "setting": "strain TA100; strain TA100 + S9, 5.0E-05 M", "value": "Negative"}, {"measurement": "Ames test Result", "setting": "strain TA100; strain TA100 + S9, 5.0E-06 M", "value": "Negative"}, {"measurement": "Ames test Result", "setting": "strain TA100; strain TA100 – S9, 1.0E-04 M", "value": "Negative"}, {"measurement": "Ames test Result", "setting": "strain TA100; strain TA100 – S9, 1.0E-05 M", "value": "Negative"}, {"measurement": "Ames test Result", "setting": "strain TA100; strain TA100 – S9, 5.0E-05 M", "value": "Negative"}, {"measurement": "Ames test Result", "setting": "strain TA100; strain TA100 – S9, 5.0E-06 M", "value": "Negative"}, {"measurement": "mutagenic potential (Ames), TA100", "setting": "strain TA100; with or without S9, 5, 10, 50, or 100 μmol/L", "value": "negative"}, {"measurement": "inhibition at 10 µM", "setting": "V1A", "value": 24.7, "unit": "%"}, {"measurement": "inhibition at 10 µM", "setting": "H1 histamine receptor", "value": -6, "unit": "%"}]}]}
